Key:
human BACE1 = human BACE1 (Homo sapiens, UniProt P56817); assay: Fluorescent kinetic assay: Evaluation of BACE-1 Binding Affinity of Test Compounds; type: biochemical; details: 10 nM enzyme, 25 μM substrate WABC-6, 50 mM Na-Acetate pH 4.5, room temperature
Outline: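 Run with 10 nM human BACE1 and 25 μM WABC-6 FRET peptide in 50 mM Na-acetate pH 4.5, 0.05% CHAPS, 25% PBS at room temperature. Fluorescence (ex 320/em 420 nm) was read every 40 sec for 30 min, and initial cleavage rates were taken from linear slopes across ≥10 inhibitor concentrations.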

Chain of human BACE1 (P56817 46-501): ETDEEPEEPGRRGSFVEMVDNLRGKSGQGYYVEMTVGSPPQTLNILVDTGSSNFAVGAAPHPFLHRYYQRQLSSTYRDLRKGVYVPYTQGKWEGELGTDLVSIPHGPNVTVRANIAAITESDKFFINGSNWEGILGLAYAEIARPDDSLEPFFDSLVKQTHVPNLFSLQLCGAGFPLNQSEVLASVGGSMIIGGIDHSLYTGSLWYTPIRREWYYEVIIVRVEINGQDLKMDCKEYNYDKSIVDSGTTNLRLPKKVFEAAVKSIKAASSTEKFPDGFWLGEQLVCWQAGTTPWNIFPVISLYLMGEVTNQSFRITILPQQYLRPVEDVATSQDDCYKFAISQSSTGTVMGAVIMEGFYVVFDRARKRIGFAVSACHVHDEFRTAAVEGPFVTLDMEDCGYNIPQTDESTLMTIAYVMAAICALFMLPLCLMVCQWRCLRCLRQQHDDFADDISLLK

SMILES: COC(=O)c1cc(C2(c3cccc(-c4ccc5c(c4)OCO5)c3)N=C(N)N(C)C2=O)cn1CCF (stereo not shown) [Example 199]
- IC50 (human BACE1): 110 to 1000 nM
- melting point: 137 to 140 °C

SMILES: CCC(=O)c1cc(C2(c3cccc(-c4cccnc4F)c3)N=C(N)N(C)C2=O)cn1CC(F)(F)F (stereo not shown) [Example 200, 2-Amino-5-[5-propionyl-1-(2,2,2-trifluoroethyl)-1H-pyrrol-3-yl]-5-[3-(2-fluoropyridin-3-yl)phenyl]-3-methyl-3,5-dihydro-4H-imidazol-4-one]
- IC50 (human BACE1): 10 to 100 nM
- melting point: 108 to 110 °C

SMILES: CCC(=O)c1cc(C2(c3cccc(-c4cncnc4)c3)N=C(N)N(C)C2=O)cn1CC(F)(F)F (stereo not shown) [Example 201]
- IC50 (human BACE1): 10 to 100 nM
- melting point: 135 to 137 °C

SMILES: CCC(=O)c1cc(C2(c3cccc(-c4cccc(OC)c4)c3)N=C(N)N(C)C2=O)cn1CC(F)(F)F (stereo not shown) [Example 202]
- IC50 (human BACE1): 10 to 100 nM
- melting point: 103 to 105 °C

SMILES: CCC(=O)c1cc(C2(c3cccc(-c4cc(F)cc(F)c4)c3)N=C(N)N(C)C2=O)cn1CC(F)(F)F (stereo not shown) [Example 203]
- IC50 (human BACE1): 10 to 100 nM
- melting point: 104 to 106 °C

SMILES: CCC(=O)c1cc(C2(c3cccc(-c4cccc(Cl)c4)c3)N=C(N)N(C)C2=O)cn1CC(F)(F)F (stereo not shown) [Example 204]
- IC50 (human BACE1): 10 to 100 nM
- melting point: 108 to 110 °C

SMILES: CCC(=O)c1cc(C2(c3cccc(-c4ccc(F)c(Cl)c4)c3)N=C(N)N(C)C2=O)cn1CC(F)(F)F (stereo not shown) [Example 205]
- IC50 (human BACE1): 10 to 100 nM
- melting point: 107 to 108 °C

SMILES: CCC(=O)c1cc(C2(c3cccc(-c4cccc(C#N)c4)c3)N=C(N)N(C)C2=O)cn1CC(F)(F)F (stereo not shown) [Example 206]
- IC50 (human BACE1): 10 to 100 nM
- melting point: 112 to 114 °C

SMILES: CCC(=O)c1cc(C2(c3ccc(F)c(-c4cccnc4F)c3)N=C(N)N(C)C2=O)cn1CC(F)(F)F (stereo not shown) [Example 207]
- IC50 (human BACE1): 10 to 100 nM
- melting point: 122 to 124 °C

SMILES: CCC(=O)c1cc(C2(c3ccc(F)c(-c4cncnc4)c3)N=C(N)N(C)C2=O)cn1CC(F)(F)F (stereo not shown) [Example 208]
- IC50 (human BACE1): 10 to 100 nM
- melting point: 225 to 226 °C

SMILES: CN1C(=O)C(c2cccc(-c3cncnc3)c2)(c2cc(C#N)n(C)c2)N=C1N (stereo not shown) [Example 225, 4-[2-Amino-1-methyl-5-oxo-4-(3-pyrimidin-5-ylphenyl)-4,5-dihydro-1H-imidazol-4-yl]-1-methyl-1H-pyrrole-2-carbonitrile]
- IC50 (human BACE1): 110 to 1000 nM
- melting point: 214 to 225 °C

SMILES: CN1C(=O)C(c2cccc(-c3cccnc3F)c2)(c2cc(C#N)n(C)c2)N=C1N (stereo not shown) [Example 226]
- IC50 (human BACE1): 110 to 1000 nM
- melting point: 213 to 220 °C

SMILES: CN1C(=O)C(c2cccc(-c3cc(F)cnc3Cl)c2)(c2cc(C#N)n(C)c2)N=C1N (stereo not shown) [Example 227]
- IC50 (human BACE1): 110 to 1000 nM
- melting point: > 225 °C

SMILES: CN1C(=O)C(c2cccc(-c3cncnc3)c2)(c2cc(C#N)n(CCF)c2)N=C1N (stereo not shown) [Example 228]
- IC50 (human BACE1): 110 to 1000 nM
- melting point: 193 to 194 °C

SMILES: CCCn1cc(C2(c3cccc(-c4cncnc4)c3)N=C(N)N(C)C2=O)cc1C#N (stereo not shown) [Example 229]
- IC50 (human BACE1): 10 to 100 nM
- melting point: 165 to 166 °C

SMILES: CCCn1cc(C2(c3cccc(-c4cccnc4F)c3)N=C(N)N(C)C2=O)cc1C#N (stereo not shown) [Example 230]
- IC50 (human BACE1): 10 to 100 nM
- melting point: 187 to 188 °C

SMILES: CN1C(=O)C(c2cccc(-c3cccnc3F)c2)(c2cc(C#N)n(CCF)c2)N=C1N (stereo not shown) [Example 231]
- IC50 (human BACE1): 10 to 100 nM
- melting point: 175 to 177 °C

SMILES: CCCn1cc(C2(c3cccc(-c4cc(F)cnc4Cl)c3)N=C(N)N(C)C2=O)cc1C#N (stereo not shown) [Example 232]
- IC50 (human BACE1): 110 to 1000 nM
- melting point: 132 to 134 °C

SMILES: CCn1cc(C2(c3cccc(-c4cccnc4F)c3)N=C(N)N(C)C2=O)cc1C=O (stereo not shown) [Example 233, 4-[2-amino-4-[3-(2-fluoropyridin-3-yl)phenyl]-1-methyl-5-oxo-4,5-dihydro-1H-imidazol-4-yl]-1-ethyl-1H-pyrrole-2-carbaldehyde]
- IC50 (human BACE1): 10 to 100 nM
- melting point: 198 to 201 °C

SMILES: CN1C(=O)C(c2cccc(-c3cccnc3F)c2)(c2cc(C=O)n(CCF)c2)N=C1N (stereo not shown) [Example 234, 4-[2-Amino-4-[3-(2-fluoropyridin-3-yl)phenyl]-1-methyl-5-oxo-4,5-dihydro-1H-imidazol-4-yl]-1-(2-fluoroethyl)-1H-pyrrole-2-carbaldehyde]
- IC50 (human BACE1): 10 to 100 nM
- melting point: 218 to 221 °C

SMILES: CCN(CC)Cc1cc(C2(c3cccc(-c4cccnc4F)c3)N=C(N)N(C)C2=O)cn1CCF (stereo not shown) [Example 235, 2-Amino-5-[5-[(diethylamino)methyl]-1-(2-fluoroethyl)-1H-pyrrol-3-yl]-5-[3-(2-fluoropyridin-3-yl)phenyl]-3-methyl-3,5-dihydro-4H-imidazol-4-one]
- IC50 (human BACE1): > 1000 nM
- melting point: 121 to 140 °C

SMILES: CC(C)NCc1cc(C2(c3cccc(-c4cccnc4F)c3)N=C(N)N(C)C2=O)cn1CCF (stereo not shown) [Example 236]
- IC50 (human BACE1): > 1000 nM
- melting point: 98 to 99 °C

SMILES: CN1C(=O)C(c2cccc(-c3cccnc3F)c2)(c2cc(CN3CCCC3)n(CCF)c2)N=C1N (stereo not shown) [Example 237]
- IC50 (human BACE1): > 1000 nM
- melting point: 110 to 120 °C

SMILES: CN(C)Cc1cc(C2(c3cccc(-c4cccnc4F)c3)N=C(N)N(C)C2=O)cn1CCF (stereo not shown) [Example 238]
- IC50 (human BACE1): 110 to 1000 nM
- melting point: 118 to 121 °C

SMILES: CCn1cc(C2(c3cccc(-c4cccnc4F)c3)N=C(N)N(C)C2=O)cc1CO (stereo not shown) [Example 239, 2-Amino-5-[1-ethyl-5-(hydroxymethyl)-1H-pyrrol-3-yl]-5-[3-(2-fluoropyridin-3-yl)phenyl]-3-methyl-3,5-dihydro-4H-imidazol-4-one]
- IC50 (human BACE1): 10 to 100 nM
- melting point: 170 to 172 °C

SMILES: CCC(O)c1cc(C2(c3cccc(-c4cccnc4F)c3)N=C(N)N(C)C2=O)cn1CC (stereo not shown) [Example 240, 2-Amino-5-[1-ethyl-5-(1-hydroxypropyl)-1H-pyrrol-3-yl]-5-[3-(2-fluoropyridin-3-yl)phenyl]-3-methyl-3,5-dihydro-4H-imidazol-4-one]
- IC50 (human BACE1): 110 to 1000 nM
- melting point: 115 to 121 °C
